US20260325605A1, “INHIBITORS” (Zealand Pharma A/S, priority 2022, published 2026)
Where two headings read alike, the source gives them in different places.

Tested on: T-cell activation in human whole blood
Assay: Example 5: IFN-g, IL-2 and IL-17A release in thapsigargin stimulated human whole blood
Assay type: cell-based
Conditions: 24 Hr, at least 2 replicate experiments
Excerpt: Human whole blood was used to assess the potency of Kv1.3 inhibitor peptides on T-cell activation as determined by release of the cytokines IFN-g, IL-2 and IL-17A after stimulation with thapsigargin. Addition of thapsigargin activates a signalling cascade resulting in T cell proliferation and cytokine production, in which the Kv1.3 ion channel plays a key role. Activity of Kv1.3 inhibitors in human primary T cells can thus be measured in this experimental system.
Human whole blood was obtained from healthy blood donors and was collected after informed consent using Sodium Heparin blood sampling tubes (Becton, Dickinson and Company (BD), Cat #367876). Test peptides were diluted to 4× final testing concentrations in assay buffer (Dulbecco's Modified Eagle's medium (DMEM) with high glucose and GlutaMAX (3.97 mM L-alanine-L-glutamine) (Gibco Cat #61965026) supplemented with 25 mM HEPES buffer, 1 mM Sodium Pyruvate, 100 units/ml Penicillin, 100 μg/ml Streptomycin and 0.05% Casein from bovine milk (Sigma-Aldrich Cat #C4765)) and 25 μl was added to wells of a 96 well tissue culture plate. Then 50 μl human whole blood was added and incubated for minimum 5 minutes at room temperature to allow compound binding. Then 25 μl of 40 μM thapsigargin diluted in assay buffer was added to all wells of the assay plates to activate the cells, followed by incubation for 24 Hr at 37° C./5% CO2 in a humidified box. The assay plates were centrifuged for 10 min at 300 g at 4° C. and the supernatants were transferred to new plates. The concentrations of IFN-g, IL-2 and IL-17A released to the supernatants were measured using a tri-plex human cytokine detection kit (MSD Human U-Plex IFN-g, IL-2 and IL-17A kit; Meso Scale Discovery Cat #K15067L-2) and all three cytokines were measured using a MSD MESO QuickPlex SQ 120 instrument as described by the manufacturer (Meso Scale Discovery, Rockville, Maryland, USA).
To determine the potency of inhibition for the compounds, the cytokine concentration data were fitted using a three parameter logistic dose response model based on the formula Y=Bottom+(Top−Bottom)/(1+IC50/X), where Y is measured cytokine concentrations, X is compound concentrations and Top, bottom and IC50 are parameters fitted using the software Graphpad Prism version 5.04. The IC50 value calculated from the concentration response curve represents the compound concentration that gives an inhibition response halfway between the basal (Bottom) response and the maximal (Top) response.
All values are derived from at least 2 replicate experiments. All of the tested Kv1.3 blockers were able to inhibit cytokine production from human T cells present in human whole blood that was stimulated with thapsigargin.

H-P[Nle]E[Nle]RC(1)SASVEC(2)KQKC(3)LAAIGSIFGKC(1)[Nle]NKKC(2)KC(3)YPR-OH [Peptide 100]
IC50 (read-out: Average IC50, IFN-g): 0.11 nM | IC50 (read-out: Average IC50, IL-2): 0.095 nM | IC50 (read-out: Average IC50, IL-17A): 0.15 nM
